Laboratory results published in patent publication US20220160680A1, “MICROORGANISM MIXTURES, MOLECULES DERIVED THEREFROM, AND METHODS OF USE THEREOF” (B. G. Negev Technologies and Applications Ltd., at …, priority 2018, published 2022).
Entries after “also recorded” stand apart in the source; their conditions may differ.

Legend:
P. aeruginosa (PA01) = experiment: Static biofilm assay (CLSM); format: cell-based, Pseudomonas aeruginosa; conditions: 20 μM
Method: (§1) For static biofilm assay, overnight cultures of P. aeruginosa (PA01), Salmonella and Staphylococcus aureus strains were diluted 1:10 in fresh LB medium containing a final concentration of synthesized molecule (203) of 20 or 50 μM, or DMSO (up to 1%) as control. Biofilms were grown under non-shaking conditions at 37° C. in 96-well plate (Thermo Scientific, Rochester, N.Y., USA). […] The stained cells were washed twice with PBS. Biofilm images were taken by CLSM (Plan-Apochromat 20×/0.8 M27, Zeiss LSM880, Germany).
(§2) P. aeruginosa PA01, Salmonella and Staphylococcus aureus strains were incubated for 24 hr at 37° C. The bacterial suspension was diluted 1:10 with fresh LB and incubated for 3 h with the kefir biomass crude extract molecules or with DMSO as a control (refreshment sample). In all cultures, DMSO concentration was up to 1% (v/v). 200 μl of the broth medium mix with yogurt extract or with DMSO as control were placed in each well of a 96-well plate (Thermo Scientific, Rochester, N.Y., USA). 2 μl refreshment samples were added to each suitable well. The plate incubated for 24 hr at 37° C. After the incubation the samples washed three times with PBS. For visualizing of viable cells, the bacteria were stained green and dead cells stained red using the BacLight® Dead/Live Kit (Invitrogen, Eugene, Oreg., USA). The stained cells were washed twice with PBS. […]

amyloid beta (αβ1-42) [1] = target: T1, amyloid beta (αβ1-42) (Homo sapiens, UniProt P05067); experiment: Thioflavin T (ThT) assay; format: biochemical; conditions: 30 μM amyloid beta, 12 hours of incubation
T1 construct: samples containing 30 μM amyloid beta [4(1-42)] in the absence or presence of tryptophol acetate
Method: ThT fluorescence measurements were taken at 37° C. using 96-well black plate on a Biotek Synergy H1 plate reader. Measurements were made on a samples containing 30 μM amyloid beta [4(1-42)] in the absence or presence of tryptophol acetate in different concentrations. A 120-μL aliquot of the aggregation reaction was mixed with 10 μM ThT in phosphate buffer (pH 7.4). The fluorescence intensity was measured every 30 min for 24 hr at λ excitation (λex)=440 and λ emission (λem)=485 nm.

[2] = test system: P. aeruginosa (PA01), Salmonella and Staphylococcus aureus strains; experiment: Bacterial cell growth/viability (BacLight Dead/Live); format: cell-based
Method: as §1, §2

Salmonella = experiment: Static biofilm assay (CLSM); format: cell-based, Salmonella enteritidis; conditions: 50 μM
Method: as §1, §2

amyloid beta (αβ1-42) [3] = target: T1, amyloid beta (αβ1-42); experiment: Transmission electron microscopy of fibrillation; format: biochemical; conditions: 24 hr, 37° C.
Method: TEM grids were prepared after 24 hr incubation at 37° C. of samples containing 30 μM 4(1-42) in the absence or presence of tryptophol acetate in different concentrations.

Staphylococcus aureus = experiment: Static biofilm assay (CLSM); format: cell-based; conditions: 50 μM
Method: as §1, §2

[4] = test system: Pseudomonas aeruginosa LasR; experiment: Quorum sensing bioluminescence reporter assay; format: cell-based; conditions: C12 AI
Method: (§3) FIGS. 8A-8E are vertical bar graphs showing bioluminescence screening of quorum sensing (QS) inhibition or activation in the presence of synthetic Tryptophol acetate. The assay was performed using mutant bacteria lacking genes encoding autoinducers. Bacteria were also cloned with a bioluminescence reporter plasmid. N-acyl Homoserine Lactone (AHL) was used for activation (agonist) or inhibition (antagonist) of the following bacteria: Agrobacterium tumefaciens, which responds to the C8 autoinducer (AI), Vibrio cholerae responds to the CAI1 autoinducer, Pseudomonas aeruginosa RhlA responds to the C4 AI and Pseudomonas aeruginosa LasR responds to the C12 AI.
(§4) Bioluminescence assay was performed with mutant bacteria lacking the nucleotide sequences encoding the relevant autoinducers (AI). Additionally, the bacteria were cloned with bioluminescence reporter plasmids in order to measure their luminescence intensity when quorum sensing gene expression occurs. Ninety-six (96) well microtiter plate assays were used to assess AI activation (agonist) or inhibition (antagonist) of the following bacteria: Agrobacterium tumefaciens, which responds to the C8 autoinducer, and both Vibrio cholerae and Vibrio harveyi, which respond to the (S)-4,5-dihydroxy-2,3-pentanedione (DPD) autoinducer to communicate.

[5] = test system: Pseudomonas aeruginosa RhlA; experiment: Quorum sensing bioluminescence reporter assay; format: cell-based; conditions: C4 AI, high volume
Method: as §3, §4

T1 sequence (P05067 672-713 limits assumed): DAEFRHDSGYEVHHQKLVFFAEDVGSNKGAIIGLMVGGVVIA

## CC(=O)OCCc1c[nH]c2ccccc12 [Tryptophol acetate]
P. aeruginosa (PA01)
  Biofilm formation, P. aeruginosa: did not seem to affect biofilm formation; also recorded: No influence
Amyloid beta (αβ1-42) [1]
  Amyloid beta fibrillation (ThT): effectively reduced amyloid beta fibrillation; also recorded: reduced αβ1-42 fibrillation
[2]
  Bacterial cell growth / viability: did not impact cell growth
Salmonella
  Biofilm formation, Salmonella: significant influence on biofilm formation
Amyloid beta (αβ1-42) [3]
  Fibrillation formation (TEM): significantly inhibited
Staphylococcus aureus
  Biofilm formation, Staphylococcus aureus: significant influence on biofilm formation
[4]
  Effect on QS in P. aeruginosa (LasR): low inhibition effect
[5]
  Effect on QS in P. aeruginosa (RhlA): low inhibition effect
